{"source": "patent US20220400680A1", "about": "“USE OF ACYLCYANAMIDES OR SALTS THEREOF FOR REGULATING PLANT GROWTH” (Alzchem Trostberg GmbH, priority 2019, published 2022)", "key": {"[1]": {"tested_on": "Table apple, type Zabergäu-Renette (C2)", "experiment": "Greenhouse test, cut apple branches C2 dipped in test solution, bud development stage", "assay_type": "in vivo, Malus domestica", "set-up": "key to Bud development stage, apple branches C2: Stage 0: Buds unchanged; Stage 1: Buds slightly swollen, first green tips visible; Stage 2: strongly swollen, green buds; Stage 3: Buds before breaking open, leaf or flower root already visible; Stage 4: Flower buds fully developed, but still closed, white petals already visible. In the case of the grapevine, stage 4 was the unfolding of the first leaves; Stage 5: Flowers fully open or, in the case of grapevine, unfolding of the flower roots (“Gescheine”) on the fully leafed sprouts", "summary_of_the_method": "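Cut branches held in water jars in a greenhouse at about 22° C. under natural light after dipping in aqueous test solution: 0.15 mol substance (0.075 mol for bis-cyanamides) plus 0.15 g BreakThru OE-446 per 500 g. Bud development scored on a stage scale from closed buds to fully open flowers.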"}, "[2]": {"tested_on": "Table apple, type Boiken apple (C1)", "experiment": "Greenhouse test, cut apple branches C1 dipped in test solution, bud development stage", "assay_type": "in vivo, Malus domestica", "set-up": "key to Bud development stage, apple branches C1: Stage 0: Buds unchanged; Stage 1: Buds slightly swollen, first green tips visible; Stage 2: strongly swollen, green buds; Stage 3: Buds before breaking open, leaf or flower root already visible; Stage 4: Flower buds fully developed, but still closed, white petals already visible. In the case of the grapevine, stage 4 was the unfolding of the first leaves; Stage 5: Flowers fully open or, in the case of grapevine, unfolding of the flower roots (“Gescheine”) on the fully leafed sprouts", "summary_of_the_method": "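Cut Boiken apple branches kept in water jars in a greenhouse at about 22 °C under natural light and dipped in test solution. Solutions contained 0.15 mol test substance (0.075 mol for bis-cyanamides) plus 0.15 g BreakThru OE-446 per 500 g water. Bud development scored on a stage scale up to full flowering.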"}, "[3]": {"settings": "T1 (14 d), 0.15 mol (A-14, A-15: 0.075 mol) per 500 g solution"}, "[4]": {"settings": "stage 4 reached or exceeded after 36 days vs negative control"}}}
{"smiles": "CC(=O)NC#N.[Na]", "note": "[Example A-1, Sodium Acetylcyanamide]", "values": [{"measurement": "Bud development stage, apple branches C2", "setting": "[1]; [3]", "result": 0}, {"measurement": "Bud development stage, apple branches C2", "setting": "[1]; T2 (16 d)", "result": 0}, {"measurement": "Bud development stage, apple branches C2", "setting": "[1]; T3 (21 d)", "result": 1}, {"measurement": "Bud development stage, apple branches C2", "setting": "[1]; T4 (27 d)", "result": 3}, {"measurement": "Bud development stage, apple branches C2", "setting": "[1]; T5 (36 d)", "result": 5}, {"measurement": "Bud development stage, apple branches C2", "setting": "[1]; T6 (56 d)", "result": 5}, {"measurement": "Dormancy-breaking effect according to the definition, apple C2", "setting": "[1]; [4]", "result": "dormancy-breaking effect"}, {"measurement": "Bud development stage, apple branches C1", "setting": "[2]; [3]", "result": 0}, {"measurement": "Bud development stage, apple branches C1", "setting": "[2]; T2 (16 d)", "result": 0}, {"measurement": "Bud development stage, apple branches C1", "setting": "[2]; T3 (21 d)", "result": 2}, {"measurement": "Bud development stage, apple branches C1", "setting": "[2]; T4 (27 d)", "result": 3}, {"measurement": "Bud development stage, apple branches C1", "setting": "[2]; T5 (36 d)", "result": 5}, {"measurement": "Bud development stage, apple branches C1", "setting": "[2]; T6 (56 d)", "result": 5}, {"measurement": "Dormancy-breaking effect according to the definition, apple C1", "setting": "[2]; [4]", "result": "dormancy-breaking effect"}]}
